Measured values from patent publication US20230405015A1, “SUBSTITUTED 3,6-DIHYDRO-2H-1,3,4-OXADIAZIN-2-ONES FOR THE TREATMENT OF SARCOMA” (Bayer Aktiengesellschaft, priority 2021, published 2023).
“And” between values parts separate entries of the source, which are not always exact repeats. Equal values may be shown once. “Also recorded” adds a separate entry of the source.

Assays:
[1] = test system: human sarcoma cell line G-292 clone A141B1; assay: Cell proliferation measurement in vitro (Cell Titer Glo, 72 h); assay type: cell-based; conditions: G292, G-292 clone A141B1, 72 h, read-out: Anti-proliferation Target IC50
Protocol: The antiproliferative activity of the compounds of the general formula (I) was examined in vitro in the human sarcoma cell line G-292 clone A141B1 (from ATCC). For this purpose, the appropriate number of cells (1000) were plated in 384-well plates with appropriate growth medium McCoy's 5a Medium Modified, FCS 10% final (Biochrom; #S 0415); and incubated at 37° C. overnight. After 24 h, cells on one plate (0 h plate) were treated with 30 μl/cavity of CTG solution (Promega Cell Titer Glo (catalogue #G755B and G756B)) and incubated at room temperature for 10 min, and luminescence was measured by means of a VICTOR V (Perkin Elmer), in order to determine cell viability on commencement of treatment. The cells on the test plate were treated with a set of compounds of the general formula (I) as indicated below and incubated at 37° C. for 72 h. The compounds were added to the cells by means of an HP D300 digital dispenser in a 10-step 2.5-fold dilution series generally starting at a maximum final drug concentration of 100 nM. As control, the cells were treated with vehicle (DMSO at 0.3% final concentration). After 72 h, the cells were treated with 30 μl/cavity of CTG solution (Promega Cell Titer Glo (catalogue #G755B and G756B)) and incubated at room temperature for 10 min, and luminescence was measured by means of a VICTOR V (Perkin Elmer), in order to determine cell viability at the end of treatment. The percentage effect on cell growth and the IC50 derived therefrom were determined for each test substance using the values from the 0 h plate (=maximum inhibition) and the DMSO control (=minimum inhibition). The IC50 values were calculated using a 4-parameter fit.

[2] = test system: sarcoma patient derived xenograft model SA10245 (Fibrous histiocytoma); assay: In vivo xenotransplantation model SA10245; parameters: species or system mice
Text: (§1) The anti-tumor activities of (6S)-5-[4′-fluoro-2-(trifluoromethyl)biphenyl-4-yl]-6-methyl-3,6-dihydro-2H-1,3,4-oxadiazin-2-one was examined in murine xenotransplantation models of human cancer. For this purpose, mice were implanted subcutaneously with tumor pieces. At a mean tumor size of 20-40 mm^2 animals were randomized into treatment and control groups (at least n=10 animals/group) and treatment started with vehicle only or respective compound (formulation: 90% PEG400/10% Ethanol; application route: per os (“p.o.”), orally). The oral application volume was 10 ml/kg. In the case of twice daily treatments, the time interval between two applications per day was 6-7 h. The tumor size and the body weight were determined at least weekly. The tumor area was detected by means of an electronic caliper [length (mm)×width (mm)]. The experiment was ended when the study reached the pre-determined ethical endpoint based on German and European animal welfare regulations. In vivo anti-tumor efficacy is presented as T/C ratio at study end (Treatment/Control; mean tumor weight of treatment group/mean tumor weight of control group) in Table 2. A compound having a T/C below 0.5 is defined as active (i.e., effective). Statistical analysis was assessed using SigmaStat software. […]

[3] = test system: sarcoma patient derived xenograft model SA3831 (Osteosarcoma); assay: In vivo xenotransplantation model SA3831; parameters: species or system mice
Text: as §1

[4] = test system: sarcoma patient derived xenograft model SA16044 (Soft Tissue Sarcoma); assay: In vivo xenotransplantation model SA16044; parameters: species or system mice; conditions: for T/C: SA16044 Soft Tissue Sarcoma PDX subcutaneous in mice, 10 mg/kg 2QD p.o., at study end
Text: The anti-tumor activities of (6S)-5-[4′-fluoro-2-(trifluoromethyl)biphenyl-4-yl]-6-methyl-3,6-dihydro-2H-1,3,4-oxadiazin-2-one was examined in murine xenotransplantation models of human cancer. For this purpose, mice were implanted subcutaneously with tumor pieces. At a mean tumor size of 20-40 mm^2 animals were randomized into treatment and control groups (at least n=10 animals/group) and treatment started with vehicle only or respective compound (formulation: 90% PEG400/10% Ethanol; application route: per os (“p.o.”), orally). The oral application volume was 10 ml/kg. In the case of twice daily treatments, the time interval between two applications per day was 6-7 h. The tumor size and the body weight were determined at least weekly. The tumor area was detected by means of an electronic caliper [length (mm)×width (mm)]. The experiment was ended when the study reached the pre-determined ethical endpoint based on German and European animal welfare regulations. In vivo anti-tumor efficacy is presented as T/C ratio at study end (Treatment/Control; mean tumor weight of treatment group/mean tumor weight of control group) in Table 2. A compound having a T/C below 0.5 is defined as active (i.e., effective). Statistical analysis was assessed using SigmaStat software. A one-way analysis of variance was performed and differences to the control were compared by a pair-wise comparison procedure (Dunn's method).
Patient-derived xenograft models established by direct transplantation of fresh human tumors are considered to more closely resemble the heterogeneity of the actual human tumor compared to xenograft models established from cell lines that have been cultured in vitro for decades. The anti-tumor activity of (6S)-5-[4′-fluoro-2-(trifluoromethyl)biphenyl-4-yl]-6-methyl-3,6-dihydro-2H-1,3,4-oxadiazin-2-one was assessed in patient-derived xenograft models of sarcoma, a tumor type consisting of many subtypes and a high medical need due to absence of approved targeted therapies. The tumor models are originating from CrownBio.

[5] = test system: sarcoma patient derived xenograft model SA10199 (recurrent malignant solitary fibrous tumor); assay: In vivo xenotransplantation model SA10199; parameters: species or system mice
Text: as §1

[6] = test system: sarcoma patient derived xenograft model SA4058 (Synovial Sarcoma); assay: In vivo xenotransplantation model SA4058; parameters: species or system mice
Text: as §1

Question: With O=C1NN=C(c2ccc(-c3cnn(C(F)F)c3)c(C(F)(F)F)c2)CO1 [Example 146, 5-{4-[1-(Difluoromethyl)-1H-pyrazol-4-yl]-3-(trifluoromethyl)phenyl}-3,6-dihydro-2H-1,3,4-oxadiazin-2-one] as the compound, how does the IC50 [1] read?
Answer: 0.0125 µM

Question: Which IC50 [1] does the source give for O=C1NN=C(c2ccc(N3CCC(F)(F)CC3)c(F)c2)CO1 [Example 1, 5-[4-(4,4-Difluoropiperidin-1-yl)-3-fluorophenyl]-3,6-dihydro-2H-1,3,4-oxadiazin-2-one] here?
Answer: 0.026 µM

Question: COCCCc1ccc(C2=NNC(=O)OC2)cc1C(F)(F)F [Example 267, 5-[4-(3-Methoxypropyl)-3-(trifluoromethyl)phenyl]-3,6-dihydro-2H-1,3,4-oxadiazin-2-one] was tested. Which IC50 [1] did it give?
Answer: 0.0168 µM

Question: Cc1cc(C2=NNC(=O)OC2)ccc1-c1ccc(F)cc1 [Example 7, 5-(4'-Fluoro-2-methylbiphenyl-4-yl)-3,6-dihydro-2H-1,3,4-oxadiazin-2-one] was tested. Which IC50 [1] did it give?
Answer: 0.0496 µM

Question: O=C1NN=C(c2ccc(-c3ccc(C(F)F)cc3)c(F)c2)CO1 [Example 92, 5-[4'-(Difluoromethyl)-2-fluoro[1,1'-biphenyl]-4-yl]-3,6-dihydro-2H-1,3,4-oxadiazin-2-one] was tested. Which IC50 [1] did it give?
Answer: 0.0351 µM

Question: With C[C@@H]1OC(=O)NN=C1c1ccc(N2CCN(C)CC2)c(C(F)(F)F)c1 [Example 277, (6S)-6-Methyl-5-[4-(4-methylpiperazin-1-yl)-3-(trifluoromethyl)phenyl]-3,6-dihydro-2H-1,3,4-oxadiazin-2-one] as the compound, how does the IC50 [1] read?
Answer: 0.604 µM

Question: How did the IC50 [1] turn out when Cc1ccc(C2=NNC(=O)OC2)cc1C(F)(F)F [Example 139, 5-[4-Methyl-3-(trifluoromethyl)phenyl]-3,6-dihydro-2H-1,3,4-oxadiazin-2-one] was run?
Answer: 0.193 µM

Question: For CC(C)(C)CCc1ccc(C2=NNC(=O)OC2)cc1C(F)(F)F [Example 269, 5-[4-(3,3-Dimethylbutyl)-3-(trifluoromethyl)phenyl]-3,6-dihydro-2H-1,3,4-oxadiazin-2-one], which IC50 [1] is on record?
Answer: 0.0857 µM

Question: C[C@@H]1OC(=O)NN=C1c1ccc(-n2ccc(C(F)(F)F)n2)c(C(F)(F)F)c1 [Example 265, (6S)-6-Methyl-5-{3-(trifluoromethyl)-4-[3-(trifluoromethyl)-1H-pyrazol-1-yl]phenyl}-3,6-dihydro-2H-1,3,4-oxadiazin-2-one] was tested. Which IC50 [1] did it give?
Answer: 0.0372 µM

Question: For O=C1NN=C(c2ccc(-c3ccc(F)cc3)c(C(F)(F)F)c2)CO1 [Example 3, 5-[4'-Fluoro-2-(trifluoromethyl)biphenyl-4-yl]-3,6-dihydro-2H-1,3,4-oxadiazin-2-one], which IC50 [1] is on record?
Answer: 0.0382 µM

Question: How did the IC50 [1] turn out when O=C1NN=C(c2ccc(N3CCOCC3)c(F)c2)CO1 [Example 4, 5-[3-Fluoro-4-(morpholin-4-yl)phenyl]-3,6-dihydro-2H-1,3,4-oxadiazin-2-one] was run?
Answer: 0.103 µM

Question: What does the source list for C[C@@H]1OC(=O)NN=C1c1ccc(-c2ccc(F)cc2)c(C(F)(F)F)c1 [Example 135, (6S)-5-[4'-Fluoro-2-(trifluoromethyl)biphenyl-4-yl]-6-methyl-3,6-dihydro-2H-1,3,4-oxadiazin-2-one]?
Answer: T/C ([2]; SA10245 Fibrous histiocytoma PDX subcutaneous in mice, 10 mg/kg 2QD p.o., at study end): 0.73; anti-tumor efficacy (in words) ([2]; SA10245 PDX in mice, versus vehicle, unpaired t-test): non-significant signs of anti-tumor efficacy; also recorded: least sensitive model; T/C ([3]; SA3831 Osteosarcoma PDX subcutaneous in mice, 10 mg/kg 2QD p.o., at study end): 0.01; anti-tumor efficacy (in words) ([3]; SA3831 PDX in mice, versus vehicle, unpaired t-test): strong tumor-growth inhibition; also recorded: significant anti-tumor efficacy; anti-tumor efficacy (in words) ([4]; SA16044 PDX in mice, versus vehicle, unpaired t-test): significant anti-tumor efficacy; also recorded: moderate tumor-growth inhibition; T/C ([4]; listed as (6S)-5-[4'-fluoro-2-(trifluoromethyl)biphenyl-4-yl]-6-methyl-3,6-dihydro-2H-1,3, 10 mg/kg): 0.33; T/C ([4]; listed as (6S)-5-[4′-fluoro-2-(trifluoromethyl)biphenyl-4-yl]-6-methyl-3,6-dihydro-2H-1,3, 10 mg/kg): 0.35 and 0.33; anti-tumor efficacy (in words) ([5]; SA10199 PDX in mice, versus vehicle, unpaired t-test): significant anti-tumor efficacy; also recorded: moderate tumor-growth inhibition; T/C ([5]; SA10199 Sarcoma (recurrent malignant solitary fibrous tumor) PDX subcutaneous in mice, 10 mg/kg 2QD p.o., at study end, listed as (6S)-5-[4'-fluoro-2-(trifluoromethyl)biphenyl-4-yl]-6-methyl-3,6-dihydro-2H-1,3, 10 mg/kg): 0.34; anti-tumor efficacy (in words) ([6]; SA4058 PDX in mice, versus vehicle, unpaired t-test): significant anti-tumor efficacy; also recorded: strong tumor-growth inhibition; T/C ([6]; SA4058 Synovial Sarcoma PDX subcutaneous in mice, 10 mg/kg 2QD p.o., at study end): 0.12; IC50 [1]: 0.0176 µM

Question: For Cc1cc(C2=NNC(=O)OC2)ccc1-c1ccc(F)c(F)c1 [Example 8, 5-(3',4'-Difluoro-2-methylbiphenyl-4-yl)-3,6-dihydro-2H-1,3,4-oxadiazin-2-one], which IC50 [1] is on record?
Answer: 0.0968 µM
